The values that follow come from ChEMBL document CHEMBL1124790, “Angiotensin converting enzyme inhibitors. 10. Aryl sulfonamide substituted N-[1-carboxy-3-phenylpropyl]-L-alanyl-L-proline derivatives as novel antihypertensives” (J Med Chem, 1990).

Molecules are shown by their SMILES.

The target of experiment [1] is T1, Angiotensin-converting enzyme (Oryctolagus cuniculus) (UniProt P12822).
T1 sequence (whole entry): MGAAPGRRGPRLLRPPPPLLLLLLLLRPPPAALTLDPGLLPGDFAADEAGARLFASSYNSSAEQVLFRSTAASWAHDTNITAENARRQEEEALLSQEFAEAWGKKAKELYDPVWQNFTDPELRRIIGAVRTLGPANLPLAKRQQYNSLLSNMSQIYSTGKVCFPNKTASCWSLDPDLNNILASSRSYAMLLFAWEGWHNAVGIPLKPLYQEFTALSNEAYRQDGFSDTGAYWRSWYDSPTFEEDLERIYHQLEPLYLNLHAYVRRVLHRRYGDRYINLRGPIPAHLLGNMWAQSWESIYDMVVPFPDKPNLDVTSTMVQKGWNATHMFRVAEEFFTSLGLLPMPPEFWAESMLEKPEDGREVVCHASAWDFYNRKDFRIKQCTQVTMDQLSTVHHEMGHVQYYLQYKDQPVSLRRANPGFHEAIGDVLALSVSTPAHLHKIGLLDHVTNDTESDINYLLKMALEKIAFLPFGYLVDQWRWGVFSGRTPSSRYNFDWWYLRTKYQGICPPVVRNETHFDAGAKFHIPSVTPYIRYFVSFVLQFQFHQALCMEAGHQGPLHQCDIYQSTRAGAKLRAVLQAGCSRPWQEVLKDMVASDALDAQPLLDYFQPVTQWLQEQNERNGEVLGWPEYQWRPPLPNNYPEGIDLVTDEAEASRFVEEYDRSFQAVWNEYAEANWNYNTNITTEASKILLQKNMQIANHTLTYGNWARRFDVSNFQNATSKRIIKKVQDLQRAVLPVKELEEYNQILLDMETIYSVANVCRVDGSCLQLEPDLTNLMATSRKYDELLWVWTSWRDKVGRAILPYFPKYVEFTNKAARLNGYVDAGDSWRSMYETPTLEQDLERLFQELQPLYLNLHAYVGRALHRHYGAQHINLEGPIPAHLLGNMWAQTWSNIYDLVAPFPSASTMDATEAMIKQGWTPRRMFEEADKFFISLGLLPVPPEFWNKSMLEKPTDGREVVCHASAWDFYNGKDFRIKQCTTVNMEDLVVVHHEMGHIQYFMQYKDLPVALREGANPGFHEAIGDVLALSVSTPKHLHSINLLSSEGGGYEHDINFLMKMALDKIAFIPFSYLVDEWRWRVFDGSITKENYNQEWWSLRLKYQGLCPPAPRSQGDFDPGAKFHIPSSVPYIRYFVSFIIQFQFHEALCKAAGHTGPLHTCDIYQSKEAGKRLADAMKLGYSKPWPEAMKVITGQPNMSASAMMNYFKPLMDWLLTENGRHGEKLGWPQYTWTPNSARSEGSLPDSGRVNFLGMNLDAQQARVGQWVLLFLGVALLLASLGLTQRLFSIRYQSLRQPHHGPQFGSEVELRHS
In words: Time to inhibit maximum Angiotensin I converting enzyme in rabbit lung. Type of experiment: functional, tissue-based.

Experiment [2] deals with T1, Angiotensin-converting enzyme (Oryctolagus cuniculus). Briefly: In vivo inhibition of Angiotensin I converting enzyme in rabbit lung after (iv) administration of a dose of 1.0(mg/kg). Type of experiment: organism-based.
Experiment [3] has as its target T2, Angiotensin-converting enzyme (Oryctolagus cuniculus, UniProt P12822).
T2 sequence (P12822 whole entry): T1 sequence (whole entry)
Briefly: In vitro inhibition of Angiotensin I converting enzyme in rabbit lung. It is filed as tissue-based.

The target in experiment [4] is T1, Angiotensin-converting enzyme (Oryctolagus cuniculus). Briefly: In vivo inhibition of Angiotensin I converting enzyme in rabbit lung at the dose of 10(mg/kg), po. It is filed as organism-based.
The target is the same in experiment [5]. In words: Time during which Angiotensin I converting enzyme inhibition is greater than or equa to 30% in rabbit lung.
For experiment [6], the system named is Angiotensin-converting enzyme (Sus scrofa). Briefly: Time to inhibit maximum Angiotensin I converting enzyme in Hog plasma.
The test system is the same in experiment [7]. In words: Time during which ACE inhibition is greater than or equal to 30% in Hog plasma.
The target in experiment [8] is T1, Angiotensin-converting enzyme (Oryctolagus cuniculus). In words: In vivo inhibition of Angiotensin I converting enzyme in rabbit lung after (po) administration of a dose of 10(mg/kg). It is filed as organism-based.
For experiment [9], the system named is Rattus norvegicus. Briefly: Percent change in K+ in fasted rats at the dose of 10 mg/kg (iv), 0-5 h. Type of experiment: functional.
The subject of experiment [10] is Rattus norvegicus. Briefly: Percent change in K+ in fasted rats at the dose of 30 mg/kg (po), 0-5 h. Type of experiment: functional.
The test system of experiment [11] is Rattus norvegicus. Briefly: Percent change in Na+ in fasted rats at the dose of 10 mg/kg (iv), 0-5 h. Type of experiment: functional.
Experiment [12] relates to Rattus norvegicus. In words: Percent change in Na+in fasted rats at the dose of 30 mg/kg (po), 0-5 h. Type of experiment: functional.
For experiment [13], the system named is Rattus norvegicus. Briefly: Percent change in urinary volume in fasted rats at the dose of 10 mg/kg (iv), 0-5 h. Type of experiment: functional, Urine.
For experiment [14], the system named is Rattus norvegicus. In words: Percent change in urinary volume in fasted rats at the dose of 30 mg/kg (po), 0-5 h. It is filed as functional, Urine.
In experiment [15] the target is T1, Angiotensin-converting enzyme (Oryctolagus cuniculus). Briefly: Time to inhibit maximum angiotensin I converting enzyme in rabbit lung. Type of experiment: functional, tissue-based.
For experiment [16] the target is unchanged. Briefly: Time during which angiotensin I converting enzyme inhibition is greater than or equa to 30% in rabbit lung. It is filed as functional, tissue-based.
Experiment [17] has the same target. In words: In vivo inhibition of angiotensin I converting enzyme (ACE) in rabbit lung after (iv) administration of a dose of 10(mg/kg). It is filed as organism-based.
The subject of experiment [18] is Rattus norvegicus. In words: Percent change in K+ in fasted rats at the dose of 25 mg/kg (iv), 0-5 h. Type of experiment: functional.
Experiment [19] deals with Rattus norvegicus. In words: Percent change in K+ in fasted rats at the dose of 25 mg/kg (iv), 5-24 h. It is filed as functional.
The subject of experiment [20] is Rattus norvegicus. Briefly: Percent change in Na+ in fasted rats at the dose of 25 mg/kg (iv), 0-5 h. Type of experiment: functional.
The test system of experiment [21] is Rattus norvegicus. In words: Antihypertensive activity was determined in spontaneously hypertensive rat at a dose of 100 mg/kg(ip) administration. It is filed as functional.
For experiment [22], the system named is Rattus norvegicus. Briefly: Percent change in Na+in fasted rats at the dose of 25 mg/kg (iv), 5-24 h. Type of experiment: functional.
Experiment [23] concerns Rattus norvegicus. In words: Percent change in urinary volume in fasted rats at the dose of 25 mg/kg (iv), 0-5 h. It is filed as functional, Urine.
The test system of experiment [24] is Rattus norvegicus. In words: Percent change in urinary volume in fasted rats at the dose of 25 mg/kg (iv), 5-24 h. Type of experiment: functional, Urine.
Experiment [25] deals with Rattus norvegicus. Briefly: Time duration was determined for the actioni (determination of MAP in ip administration) in rat. Type of experiment: functional.
Experiment [26] is filed under the species Rattus norvegicus. Briefly: The onset hour was determined in rat. Type of experiment: functional.
Experiment [27] concerns Rattus norvegicus. Briefly: Antihypertensive activity was determined in spontaneously hypertensive rat at a dose of 3 mg/kg(po) administration. Type of experiment: functional.
Experiment [28] concerns Rattus norvegicus. Briefly: Time duration was determined for the actioni (determination of MAP in po administration) in rat. Type of experiment: functional.
The target in experiment [29] is Angiotensin-converting enzyme (Homo sapiens) (UniProt P12821+Q9BYF1). To be noted: Sus scrofa; Plasma.
Experiment [30] has as its target T1, Angiotensin-converting enzyme (Oryctolagus cuniculus). To be noted: Lung.

Angiotensin-converting enzyme (Homo sapiens), sequence (P12821 whole entry, looked up): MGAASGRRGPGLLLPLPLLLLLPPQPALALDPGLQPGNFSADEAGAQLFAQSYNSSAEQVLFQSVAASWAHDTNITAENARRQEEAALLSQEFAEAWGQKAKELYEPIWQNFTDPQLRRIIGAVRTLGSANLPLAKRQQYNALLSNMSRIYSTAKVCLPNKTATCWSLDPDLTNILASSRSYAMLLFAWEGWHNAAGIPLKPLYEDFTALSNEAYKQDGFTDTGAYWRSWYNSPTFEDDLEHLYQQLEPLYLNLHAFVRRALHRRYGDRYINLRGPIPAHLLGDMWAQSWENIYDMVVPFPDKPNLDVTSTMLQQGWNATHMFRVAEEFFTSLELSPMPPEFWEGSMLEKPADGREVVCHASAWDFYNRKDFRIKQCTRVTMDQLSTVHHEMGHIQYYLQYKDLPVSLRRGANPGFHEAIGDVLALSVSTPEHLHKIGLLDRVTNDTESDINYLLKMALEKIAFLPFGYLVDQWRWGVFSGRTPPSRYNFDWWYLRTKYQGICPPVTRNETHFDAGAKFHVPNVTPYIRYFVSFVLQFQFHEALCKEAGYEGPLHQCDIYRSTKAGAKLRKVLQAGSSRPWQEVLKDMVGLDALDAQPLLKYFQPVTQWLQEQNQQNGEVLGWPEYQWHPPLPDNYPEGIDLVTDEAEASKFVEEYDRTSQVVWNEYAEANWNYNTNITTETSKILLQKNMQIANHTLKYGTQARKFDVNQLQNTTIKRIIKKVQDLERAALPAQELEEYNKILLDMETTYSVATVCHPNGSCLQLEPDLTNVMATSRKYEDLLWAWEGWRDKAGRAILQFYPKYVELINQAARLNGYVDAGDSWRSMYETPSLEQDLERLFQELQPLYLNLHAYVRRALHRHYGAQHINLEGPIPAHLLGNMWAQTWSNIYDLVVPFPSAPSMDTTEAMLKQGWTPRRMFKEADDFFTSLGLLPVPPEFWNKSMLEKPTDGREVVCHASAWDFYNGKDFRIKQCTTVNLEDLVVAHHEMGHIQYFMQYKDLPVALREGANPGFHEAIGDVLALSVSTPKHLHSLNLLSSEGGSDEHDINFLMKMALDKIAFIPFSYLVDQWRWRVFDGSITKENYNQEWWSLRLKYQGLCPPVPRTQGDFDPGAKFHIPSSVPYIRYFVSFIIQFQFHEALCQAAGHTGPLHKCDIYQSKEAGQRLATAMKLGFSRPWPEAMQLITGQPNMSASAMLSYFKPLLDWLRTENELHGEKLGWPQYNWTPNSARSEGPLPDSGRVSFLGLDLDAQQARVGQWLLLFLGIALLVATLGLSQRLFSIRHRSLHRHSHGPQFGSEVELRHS
Angiotensin-converting enzyme (Homo sapiens), sequence (Q9BYF1 whole entry, looked up): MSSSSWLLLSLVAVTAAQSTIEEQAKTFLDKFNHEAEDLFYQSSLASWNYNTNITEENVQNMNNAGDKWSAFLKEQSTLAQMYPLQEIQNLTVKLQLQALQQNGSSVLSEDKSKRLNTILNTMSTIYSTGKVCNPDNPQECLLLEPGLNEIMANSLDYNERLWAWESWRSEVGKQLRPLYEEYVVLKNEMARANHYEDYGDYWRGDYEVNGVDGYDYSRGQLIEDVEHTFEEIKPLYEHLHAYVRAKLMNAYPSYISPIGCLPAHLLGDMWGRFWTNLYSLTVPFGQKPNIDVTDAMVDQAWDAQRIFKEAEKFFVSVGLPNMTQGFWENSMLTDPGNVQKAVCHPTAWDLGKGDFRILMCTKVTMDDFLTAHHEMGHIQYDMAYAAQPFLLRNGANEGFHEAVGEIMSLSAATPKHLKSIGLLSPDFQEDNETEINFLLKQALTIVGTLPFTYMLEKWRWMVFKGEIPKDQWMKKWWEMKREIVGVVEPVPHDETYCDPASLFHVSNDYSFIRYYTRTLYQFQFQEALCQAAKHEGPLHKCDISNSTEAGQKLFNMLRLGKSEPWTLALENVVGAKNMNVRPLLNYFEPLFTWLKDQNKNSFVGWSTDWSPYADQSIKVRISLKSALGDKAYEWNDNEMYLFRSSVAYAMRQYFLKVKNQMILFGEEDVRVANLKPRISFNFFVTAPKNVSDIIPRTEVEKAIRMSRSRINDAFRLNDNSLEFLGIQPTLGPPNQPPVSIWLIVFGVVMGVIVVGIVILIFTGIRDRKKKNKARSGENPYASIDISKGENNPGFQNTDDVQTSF

On to `C[C@H](N[C@@H](CCc1ccccc1)C(=O)O)C(=O)N1CC(NNC(=O)c2ccc(Cl)c(S(N)(=O)=O)c2)C[C@H]1C(=O)O` (some centres not stated), for which the Time to max. inhibition in experiment [1] and in experiment [6] was 0.3 h in each case. Besides, the results for the inhibition in experiment [2] and in [4] were 85% and 52%, respectively. In experiment [3], this compound registered an IC50 of 26 nM. The Duration was determined as 3 h in experiment [5] and 0 h in experiment [7].
In turn, `C[C@H](N[C@@H](CCc1ccccc1)C(=O)O)C(=O)N1CCC[C@H]1C(=O)O` registered an inhibition in [8] of 74%.
Consider `NS(=O)(=O)c1cc2c(cc1Cl)N=CNS2(=O)=O` [CHLOROTHIAZIDE], for which the Change in the experiment with Rattus norvegicus [9] came out at 100%; with Rattus norvegicus [10] it was 71%; in the experiment on Rattus norvegicus [11], 60%; in the experiment on Rattus norvegicus [12], 0%; with Rattus norvegicus [13] it was 83%; in the experiment with Rattus norvegicus [14], 94%.
As for `C[C@H](N[C@@H](CCc1ccccc1)C(=O)O)C(=O)N1C[C@@H](NS(=O)(=O)c2cc3c(cc2Cl)NC=NS3(=O)=O)C[C@H]1C(=O)O`, the Time to max. inhibition in experiment [15] was 0.3 h. The results for the Duration (in experiment [16]; with Rattus norvegicus [25]) were 1.25 h and 3 h, respectively. In experiment [17], this compound showed an inhibition of 78%. Moreover, the Change in the experiment with Rattus norvegicus [18] is 40%; in the experiment on Rattus norvegicus [19], 67%; in the experiment with Rattus norvegicus [20], 0%; in the experiment with Rattus norvegicus [22], 0%; in the experiment on Rattus norvegicus [23] it was 0%; in the experiment with Rattus norvegicus [24] it was 61%. In addition, the “Change in MAP” value in the experiment on Rattus norvegicus [21] is given as -11%. The compound further gave an Onset in the experiment filed under Rattus norvegicus [26] of less than 0.25 h.
`CCOC(=O)[C@H](CCc1ccccc1)N[C@@H](C)C(=O)N1CCC[C@H]1C(=O)O` registered a Time to max. inhibition in experiment [1] of 1 h. Also, the “Change in MAP” value in the experiment with Rattus norvegicus [27] was -10%. Moreover, the Duration with Rattus norvegicus [28] is 4 h; in experiment [29], more than 3 h; in experiment [30], more than 4 h. The compound further displayed an Onset in the experiment filed under Rattus norvegicus [26] of 1 h.

Broadly, the inhibition is the drop in the measured response relative to a control, in per cent. The low end stands for a weak effect, the high end for a strong effect. One may read the IC50 as the concentration that gives 50% inhibition.
